Experimental data published in ChEMBL document CHEMBL2434921, “New synthetic aliphatic sulfonamido-quaternary ammonium salts as anticancer chemotherapeutic agents” (2013).
The source made the active and inactive calls. The rule behind the calls is not given here.

What was measured:
[1] = system: PC-3; assay: Growth of human PC3 cells at 10 uM after 48 hrs by SRB assay; conditions: PC-3, 48 h
[2] = system: PC-3; assay: Growth inhibition of human PC3 cells at 1 uM after 48 hrs by SRB assay; values are per cent of control; conditions: PC-3, 48 h
[3] = system: MDA-MB-231; assay: Growth inhibition of human MDA-MB-231 cells at 0.3 uM after 48 hrs by SRB assay; values are per cent of control; conditions: MDA-MB-231, 48 h
[4] = biological target: Rho-related GTP-binding protein RhoB (Homo sapiens) (UniProt P62745); assay: Transactivation of RhoB (unknown origin) transfected in human HeLa cells at 5 uM measured over 10 secs by dual luciferase reporter gene assay; type: cell-based
Sequence of Rho-related GTP-binding protein RhoB (Homo sapiens) (P62745 whole entry): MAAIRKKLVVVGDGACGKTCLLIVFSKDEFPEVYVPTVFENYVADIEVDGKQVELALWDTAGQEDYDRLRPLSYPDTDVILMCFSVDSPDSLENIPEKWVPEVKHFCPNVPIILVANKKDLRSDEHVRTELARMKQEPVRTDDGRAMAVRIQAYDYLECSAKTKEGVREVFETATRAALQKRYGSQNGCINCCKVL

[5] = system: HCT-15; assay: Growth inhibition of human HCT15 cells at 10 uM after 48 hrs by SRB assay; values are per cent of control; conditions: HCT-15, 48 h
[6] = system: PC-3; assay: Growth inhibition of human PC3 cells at 0.3 uM after 48 hrs by SRB assay; values are per cent of control; conditions: PC-3, 48 h
[7] = system: NUGC-3; assay: Growth of human NUGC3 cells at 0.1 uM after 48 hrs by SRB assay; conditions: NUGC-3, 48 h
[8] = system: NCI-H23; assay: Growth of human NCI-H23 cells at 0.3 uM after 48 hrs by SRB assay; conditions: NCI-H23, 48 h
[9] = system: ACHN; assay: Growth inhibition of human ACHN cells at 3 uM after 48 hrs by SRB assay; values are per cent of control
[10] = system: NUGC-3; assay: Growth inhibition of human NUGC3 cells at 10 uM after 48 hrs by SRB assay; values are per cent of control; conditions: NUGC-3, 48 h
[11] = system: NUGC-3; assay: Growth of human NUGC3 cells at 0.3 uM after 48 hrs by SRB assay; conditions: NUGC-3, 48 h
[12] = system: HCT-15; assay: Growth inhibition of human HCT15 cells at 1 uM after 48 hrs by SRB assay; values are per cent of control; conditions: HCT-15, 48 h
[13] = system: HCT-15; assay: Growth of human HCT15 cells at 3 uM after 48 hrs by SRB assay; conditions: HCT-15, 48 h
[14] = system: NCI-H23; assay: Growth inhibition of human NCI-H23 cells at 3 uM after 48 hrs by SRB assay; values are per cent of control; conditions: NCI-H23, 48 h
[15] = system: ACHN; assay: Growth inhibition of human ACHN cells after 48 hrs by SRB assay; type: functional
[16] = system: NCI-H23; assay: Growth inhibition of human NCI-H23 cells at 1 uM after 48 hrs by SRB assay; values are per cent of control; conditions: NCI-H23, 48 h
[17] = system: NCI-H23; assay: Growth inhibition of human NCI-H23 cells after 48 hrs by SRB assay; type: functional; conditions: NCI-H23, 48 h
[18] = system: NCI-H23; assay: Growth inhibition of human NCI-H23 cells at 0.1 uM after 48 hrs by SRB assay; values are per cent of control; conditions: NCI-H23, 48 h
[19] = system: PC-3; assay: Growth inhibition of human PC3 cells after 48 hrs by SRB assay; type: functional; conditions: PC-3, 48 h
[20] = system: ACHN; assay: Growth inhibition of human ACHN cells at 1 uM after 48 hrs by SRB assay; values are per cent of control
[21] = system: ACHN; assay: Growth of human ACHN cells at 0.3 uM after 48 hrs by SRB assay
[22] = system: NCI-H23; assay: Growth of human NCI-H23 cells at 10 uM after 48 hrs by SRB assay; conditions: NCI-H23, 48 h
[23] = system: HCT-15; assay: Growth inhibition of human HCT15 cells at 0.1 uM after 48 hrs by SRB assay; values are per cent of control; conditions: HCT-15, 48 h
[24] = system: NUGC-3; assay: Growth of human NUGC3 cells at 1 uM after 48 hrs by SRB assay; conditions: NUGC-3, 48 h
[25] = system: MDA-MB-231; assay: Growth of human MDA-MB-231 cells at 10 uM after 48 hrs by SRB assay; conditions: MDA-MB-231, 48 h
[26] = system: NUGC-3; assay: Growth inhibition of human NUGC3 cells at 3 uM after 48 hrs by SRB assay; values are per cent of control; conditions: NUGC-3, 48 h
[27] = system: PC-3; assay: Growth inhibition of human PC3 cells at 3 uM after 48 hrs by SRB assay; values are per cent of control; conditions: PC-3, 48 h
[28] = system: NUGC-3; assay: Growth inhibition of human NUGC3 cells after 48 hrs by SRB assay; type: functional; conditions: NUGC-3, 48 h
[29] = system: ACHN; assay: Growth of human ACHN cells at 0.1 uM after 48 hrs by SRB assay
[30] = system: MDA-MB-231; assay: Growth inhibition of human MDA-MB-231 cells after 48 hrs by SRB assay; type: functional; conditions: MDA-MB-231, 48 h
[31] = system: MDA-MB-231; assay: Growth of human MDA-MB-231 cells at 1 uM after 48 hrs by SRB assay; conditions: MDA-MB-231, 48 h
[32] = system: PC-3; assay: Growth inhibition of human PC3 cells at 0.1 uM after 48 hrs by SRB assay; values are per cent of control; conditions: PC-3, 48 h
[33] = system: MDA-MB-231; assay: Growth of human MDA-MB-231 cells at 0.1 uM after 48 hrs by SRB assay; conditions: MDA-MB-231, 48 h
[34] = system: MDA-MB-231; assay: Growth of human MDA-MB-231 cells at 3 uM after 48 hrs by SRB assay; values are per cent of control; conditions: MDA-MB-231, 48 h
[35] = system: ACHN; assay: Growth of human ACHN cells at 10 uM after 48 hrs by SRB assay
[36] = system: HCT-15; assay: Growth inhibition of human HCT15 cells after 48 hrs by SRB assay; type: functional; conditions: HCT-15, 48 h
[37] = system: HCT-15; assay: Growth of human HCT15 cells at 0.3 uM after 48 hrs by SRB assay; conditions: HCT-15, 48 h

| Activity [4] | GI50 [15] | GI50 [17] | GI50 [19] | Compound | growth, % of control at 10 µM [1] | growth, % of control at 1 µM [2] | growth, % of control at 0.3 µM [3] | growth, % of control at 10 µM [5] | growth, % of control at 0.3 µM [6] | growth, % of control at 0.1 µM [7] | growth, % of control at 0.3 µM [8] | growth, % of control at 3 µM [9] | growth, % of control at 10 µM [10] | growth, % of control at 0.3 µM [11] | growth, % of control at 1 µM [12] | growth, % of control at 3 µM [13] | growth, % of control at 3 µM [14] | growth, % of control at 1 µM [16] | growth, % of control at 0.1 µM [18] | growth, % of control at 1 µM [20] | further results |
| --- | --- | --- | --- | --- | --- | --- | --- | --- | --- | --- | --- | --- | --- | --- | --- | --- | --- | --- | --- | --- | --- |
| Active | 1.6 µM | 1.29 µM | 0.62 µM | CCCCCCCCCCCCCCCCS(=O)(=O)N(C)CC[N+](C)(C)C | -3.1% | 56.8% | 95.7% | 19.5% | 90.3% | 89.4% | 101% | 51.4% | 2.7% | 74.1% | 55.3% | 22.4% | 41.8% | 80.3% | 103% | 69.7% | growth, % of control at 0.3 µM [21]: 90.3%; growth, % of control at 10 µM [22]: 6.8%; growth, % of control at 0.1 µM [23]: 95.7%; growth, % of control at 1 µM [24]: 32.2%; growth, % of control at 10 µM [25]: 8%; growth, % of control at 3 µM [26]: 14.4%; growth, % of control at 3 µM [27]: 17.6%; GI50 [28]: 0.33 µM; growth, % of control at 0.1 µM [29]: 99.4%; GI50 [30]: 0.93 µM; growth, % of control at 1 µM [31]: 66.8%; growth, % of control at 0.1 µM [32]: 99.4%; growth, % of control at 0.1 µM [33]: 98.2%; growth, % of control at 3 µM [34]: 32.7%; growth, % of control at 10 µM [35]: 25.5%; GI50 [36]: 0.7 µM; growth, % of control at 0.3 µM [37]: 91.4% |
| Active | 0.95 µM | 0.43 µM | 0.36 µM | CCCCCCCCCCCCCCCCS(=O)(=O)N(C)CCC[N+](C)(C)CC | -28.9% | 25% | 89.2% | 15.7% | 88.2% | 76.9% | 73.1% | 35.6% | -27.9% | 63.4% | 56.5% | 30.5% | 14.8% | 58.8% | 70.4% | 64.5% | growth, % of control at 0.3 µM [21]: 92.1%; growth, % of control at 10 µM [22]: -22.7%; growth, % of control at 0.1 µM [23]: 85.4%; growth, % of control at 1 µM [24]: 16.9%; growth, % of control at 10 µM [25]: 0%; growth, % of control at 3 µM [26]: -14.1%; growth, % of control at 3 µM [27]: -17.9%; GI50 [28]: 0.2 µM; growth, % of control at 0.1 µM [29]: 102%; GI50 [30]: 0.69 µM; growth, % of control at 1 µM [31]: 54.4%; growth, % of control at 0.1 µM [32]: 91.6%; growth, % of control at 0.1 µM [33]: 94.8%; growth, % of control at 3 µM [34]: 27.3%; growth, % of control at 10 µM [35]: 1.6%; GI50 [36]: 0.78 µM; growth, % of control at 0.3 µM [37]: 87.4% |
